In PMC8457056, “Remodeling of the Fibrillation Pathway of α‐Synuclein by Interaction with Antimicrobial Peptide LL‐III” (Chemistry (Weinheim an Der Bergstrasse, Germany), 2021):

What was measured:
net charge of LL-III = type: physicochemical
α‐Syn droplets = assay: fluorescence microscopy, partitioning of LL-III in α-Syn droplets; type: binding, human; details: 100 μM α-Syn, pH 5.0, 25 °C
Protocol: Figure 1 A) Phase‐contrast light microscopy snapshots of 100 μM and 200 μM α‐Syn solutions collected 2, 4, 7, 9 and 16 days after incubation of the monomeric α‐Syn. B) Phase‐contrast light microscopy snapshots of a solution of 100 μM α‐Syn in the presence of the reported concentration of antimicrobial peptide LL‐III. Each sample was prepared by mixing the monomeric form of α‐Syn with LL‐III. The pictures were taken after 9 and 16 days of incubation. For the snapshots after 16 days, at each peptide concentration, two different regions of the cover slip were sampled, showing the presence of discrete droplets as well as droplet clusters in solution. C) Phase‐contrast light and fluorescence microscopy snapshots of a 100 μM α‐Syn solution in the presence of 50 μM LL‐III (total peptide concentration, the concentration of the carboxyfluorescein‐labelled peptide was 1 μM). All the experiments were performed at room temperature (25 °C) in 20 mM sodium acetate buffer, pH 5.0. […]
To reveal if the short antimicrobial peptide LL‐III is able to affect the fibril formation of α‐Syn, we performed a series of microscopy experiments by using 100 μM of α‐Syn and varying the concentration of LL‐III between 50 μM and 500 μM. […] To confirm partitioning of the LL‐III peptide in the α‐Syn droplets, complementary fluorescence microscopy experiments were performed using a carboxyfluorescein‐labelled LL‐III peptide. […]

α‐Syn = assay: phase-contrast light microscopy of α-Syn droplet and fibril formation; type: biochemical, human
Protocol: Figure 1 A) Phase‐contrast light microscopy snapshots of 100 μM and 200 μM α‐Syn solutions collected 2, 4, 7, 9 and 16 days after incubation of the monomeric α‐Syn. B) Phase‐contrast light microscopy snapshots of a solution of 100 μM α‐Syn in the presence of the reported concentration of antimicrobial peptide LL‐III. Each sample was prepared by mixing the monomeric form of α‐Syn with LL‐III. The pictures were taken after 9 and 16 days of incubation. For the snapshots after 16 days, at each peptide concentration, two different regions of the cover slip were sampled, showing the presence of discrete droplets as well as droplet clusters in solution. C) Phase‐contrast light and fluorescence microscopy snapshots of a 100 μM α‐Syn solution in the presence of 50 μM LL‐III (total peptide concentration, the concentration of the carboxyfluorescein‐labelled peptide was 1 μM). All the experiments were performed at room temperature (25 °C) in 20 mM sodium acetate buffer, pH 5.0. The scale bar is 30 μm.
To reveal if the short antimicrobial peptide LL‐III is able to affect the fibril formation of α‐Syn, we performed a series of microscopy experiments by using 100 μM of α‐Syn and varying the concentration of LL‐III between 50 μM and 500 μM. The samples were prepared by mixing a solution of LL‐III peptide and α‐Syn in the monomeric state and taking pictures after 9 and 16 days. The results are collected in Figure 1B. […] After 9 days, droplets as well as clusters thereof were visible. The size of the clusters depended on the LL‐III concentration. Higher peptide concentrations promoted the association of more droplets. […] To confirm partitioning of the LL‐III peptide in the α‐Syn droplets, complementary fluorescence microscopy experiments were performed using a carboxyfluorescein‐labelled LL‐III peptide.
The lyophilized powders of the labeled and unlabeled LL-III peptide were purchased from GenScript, Germany.
The sequence of the LL-III peptide is NH2-VNWKKIL GKIIKVVK -CONH2. In th e labeled peptide, the fluorophore 6-carboxyfluorescein (FAM) was covalently attached to the N-terminus of the peptide. All the solutions were pre-pared in 20 mM sodium acetate buffer at pH 5.0. Deionized water was used for the buffer and all sample prepara- […]
Expression and purification of α-synuclein
The expression and purification of α-synuclein (α-Syn) was carried out as described before.[1,2] The plasmid was purchased from GenScript. The plasmid pT7- 7 expressing human α-synuclein was transformed into Escherichia coli strain BL21 (DE3). A single colony was picked and inoculated into 100 m l LB medium containing 150 μg/m l ampicillin and grown at 37°C with shaking at 250 rpm until the absorbance at 600 nm reached 0.8. Induction was then carried out by adding 1 mM IPTG (final concentration) and the culture was further grown under similar con-ditions for 3 h. The cells were harvested, resuspended in 0.75 ml of buffer (50 mM Tris-HCl, pH 7.5, 10 mM EDTA and 150 mM NaCl) and frozen at - 80 °C. Tubes containing frozen cells were placed in a boiling water bath for 7 min and the supernatant collected after centrifugation at maximum speed for […]. Streptomycin sulfate (136 μl/ml of supernatant) and glacial acetic acid (228 μl/ml of supernatant) were added and centrifuged for 2 min. Again, t he supernatant was recovered and precipitated with ammonium sulfate (saturated ammonium sulfate at 4°C was used 1:1, v/v, with supernatant). […]

With NH2-VNWKKIL GKIIKVVK -CONH2 [LL‐III] the “net charge at pH 5.0” value (net charge of LL-III; also at the lower pH of pH 5.0) was “+6”, the “net charge at pH 7.4” value (net charge of LL-III; pH 7.4) was “+6” and the “partitioning in α-Syn droplets” value (α‐Syn droplets; 50 μM LL-III of which 1 μM carboxyfluorescein-labelled, 20 mM sodium acetate, excitation 488 nm) was “most of the LL‐III peptide was localized in the α‐Syn droplets”. For the same substance, the “droplet clusters after 16 days” value (α‐Syn droplets; 16 days) was “formation of LL‐III‐enriched droplet clusters were observed after 16 days”, the “inhibition of α-Syn fibril formation” value (α‐Syn; 100 μM monomeric α-Syn, LL-III 50–500 μM, 9 and 16 days, 20 mM sodium acetate, pH 5.0, 25 °C) was “LL‐III inhibits formation of the amyloidogenic state of the protein” and the “inhibition of fibril formation at 50 μM LL-III” value (α‐Syn; 100 μM α-Syn, 50 μM LL-III, 20 mM sodium acetate, pH 5.0, 25 °C) was “the formation of fibrils was already inhibited”. The number of droplets (α‐Syn; 100 μM α-Syn, 200 μM and 500 μM LL-III, pH 5.0, 25 °C) was “the number of droplets was significantly increased”, the “effect on droplet condensate after 16 days” value (α‐Syn; 100 μM α-Syn, LL-III 50–500 μM, 16 days, pH 5.0, 25 °C) was “fostered formation of the droplet condensate” and the “decondensation of the droplets” value (α‐Syn; conclusion) was “No decondensation of the droplets takes place”.
